Test results taken from patent US20210101899A1, “INHIBITORS OF MUTANT ISOCITRATE DEHYDROGENASES AND COMPOSITIONS AND METHODS THEREOF” (IsoCure Biosciences Inc., priority 2016, published 2021).

What was measured:
Format in all cases: biochemical
IDH1 (R132H) = IDH1 (R132H) (Homo sapiens, UniProt O75874, R132H); assay: IDH enzyme assay, NADPH depletion by diaphorase/resazurin coupled detection; details: pre-incubated with enzyme for 1 h at room temperature; 1500 μM a-Ketoglutarate+15 μM NADPH; 10-dose, 3-fold dilution from 10 μM; read-out: Compound IC50 (nM) IDH1 (R132H)
Procedure: (§1) Compounds were tested against 3 enzymes, as provided below. Compounds were tested in 10-dose IC50 mode with 3-fold serial dilution at a starting concentration of 10 μM. Control Compounds were tested in 10-dose IC50 mode with 3-fold serial dilution starting at 1 mM or 10 mM. Assay Format: The production or depletion of NADPH by IDH enzymes was measured by diaphorase/resazurin coupled detection. Fluorescence measurement: Ex/Em=535/590 by EnVision. Compounds were pre-incubated with enzyme for 1 h at room temperature. Standard substrate: 1500 μM a-Ketoglutarate+15 μM NADPH for IDH1 (R132H). 500 μM a-Ketoglutarate+15 μM NADPH for IDH1 (R132C). 65 μM Isocitrate+50 μM NADP for IDH1.

IDH1 (R132C) = IDH1 (R132C) (Homo sapiens, UniProt O75874, R132C); assay: as above; details: pre-incubated with enzyme for 1 h at room temperature; 500 μM a-Ketoglutarate+15 μM NADPH; 10-dose, 3-fold dilution from 10 μM; read-out: Compound IC50 (nM) IDH1 (R132C)
Procedure: as §1

IDH1 = IDH1 (Homo sapiens, UniProt O75874); assay: IDH enzyme assay, NADPH production by diaphorase/resazurin coupled detection; details: IDH1 WT; pre-incubated with enzyme for 1 h at room temperature; 65 μM Isocitrate+50 μM NADP; 10-dose, 3-fold dilution from 10 μM; read-out: Compound IC50 (nM) IDH1
Procedure: as §1

Chain of IDH1 (R132C) (O75874 whole entry R132C): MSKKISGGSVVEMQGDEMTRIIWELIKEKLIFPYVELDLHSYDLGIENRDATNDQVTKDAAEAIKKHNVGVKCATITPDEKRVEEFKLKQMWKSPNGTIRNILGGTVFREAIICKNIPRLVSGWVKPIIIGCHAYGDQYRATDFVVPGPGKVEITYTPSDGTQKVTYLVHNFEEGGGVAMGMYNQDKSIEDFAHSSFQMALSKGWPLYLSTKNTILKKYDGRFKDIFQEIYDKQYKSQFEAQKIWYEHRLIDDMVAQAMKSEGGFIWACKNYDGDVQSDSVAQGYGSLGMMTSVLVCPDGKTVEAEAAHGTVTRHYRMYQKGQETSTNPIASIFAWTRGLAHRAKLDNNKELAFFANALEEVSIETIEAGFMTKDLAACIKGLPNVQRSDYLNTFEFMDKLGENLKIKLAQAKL
Chain of IDH1 (O75874 whole entry): as the sequence (O75874 whole entry R132C) above, with C132R counted along it
Chain of IDH1 (R132H) (O75874 whole entry R132H): as the sequence (O75874 whole entry R132C) above, with C132H counted along it

Structure (SMILES)	IC50 (IDH1 (R132H)) [nM]	IC50 (IDH1 (R132C)) [nM]	IC50 (IDH1) [nM]
C=CC(=O)Nc1ccc(NC(=O)c2nn(Cc3ccc(F)cc3)c3c2CN(C(=O)c2ccc[nH]2)CC3C)s1 (stereo not drawn) [ISO-2-19, N-(5-acrylamidothiophen-2-yl)-1-(4-fluorobenzyl)-7-methyl-5-(1H-pyrrole-2-carbonyl)-4,5,6,7-tetrahydro-1H-pyrazolo[4,3-c]pyridine-3-carboxamide]	5	35	4780
C=CC(=O)N1CCC(NC(=O)c2nn(Cc3ccc(F)cc3)c3c2CN(C(=O)c2ccc[nH]2)CC3C)C1 (stereo not drawn) [ISO-2-9, N-(1-acryloylpyrrolidin-3-yl)-1-(4-fluorobenzyl)-7-methyl-5-(1H-pyrrole-2-carbonyl)-4,5,6,7-tetrahydro-1H-pyrazolo[4,3-c]pyridine-3-carboxamide]	> 10000	> 10000	> 10000
C=CC(=O)Nc1cccc(Cn2nc(C(=O)Nc3cccc(C)c3)c3c2C(C)CN(C(=O)c2ccc[nH]2)C3)c1 (stereo not drawn) [ISO-2-27, 1-(3-acrylamidobenzyl)-7-methyl-5-(1H-pyrrole-2-carbonyl)-N-(m-tolyl)-4,5,6,7-tetrahydro-1H-pyrazolo[4,3-c]pyridine-3-carboxamide]	25	127	> 10000
C=CC(=O)N1CCC(NC(=O)c2nn(Cc3ccc(F)cc3)c3c2CN(C(=O)c2ccc[nH]2)CC3C)CC1 (stereo not drawn) [ISO-2-26, N-(1-acryloylpiperidin-4-yl)-1-(4-fluorobenzyl)-7-methyl-5-(1H-pyrrole-2-carbonyl)-4,5,6,7-tetrahydro-1H-pyrazolo[4,3-c]pyridine-3-carboxamide]	> 10000	> 10000	> 10000
C=CC(=O)NCc1cc(F)ccc1Cn1nc(C(=O)Nc2cccc([C@H](C)O)c2)c2c1C(C)CN(C(=O)c1ccc[nH]1)C2 (stereo partly drawn) [ISO-2-8, 1-(2-(acrylamidomethyl)-4-fluorobenzyl)-N-(3-((S)-1-hydroxyethyl)phenyl)-7-methyl-5-(1H-pyrrole-2-carbonyl)-4,5,6,7-tetrahydro-1H-pyrazolo[4,3-c]pyridine-3-carboxamide]	52	154	> 10000
C=CC(=O)Nc1cc(Cn2nc(C(=O)Nc3cccc(C)c3)c3c2C(C)CN(C(=O)c2ccc[nH]2)C3)ccc1F (stereo not drawn) [ISO-2-1, 1-(3-acrylamido-4-fluorobenzyl)-7-methyl-5-(1H-pyrrole-2-carbonyl)-N-(m-tolyl)-4,5,6,7-tetrahydro-1H-pyrazolo[4,3-c]pyridine-3-carboxamide]	18	35	> 10000
C=CC(=O)Nc1ccc(NC(=O)c2nn(Cc3ccc(F)cc3)c3c2CN(C(=O)c2ccc[nH]2)C[C@H]3C)cc1 [ISO-2-25-R]	10	21	2140
